Active and inactive are the calls of the source. No cut-off for these calls is given here.
Tests used:
Rattus norvegicus [1] = test: Effect on ventral prostate weight with reference to control in Wistar rat at 10 mg/kg/day, po; format: functional, Prostate gland; conditions: for inhibition in vivo at 10 mg/kg/day: Rattus norvegicus, Wistar; for inhibition in vivo at 10 mg/kg/day / inhibition: Prostate gland
Androgen receptor = target: T1, Androgen receptor (Homo sapiens, UniProt P10275)
T1 sequence (P10275 whole entry): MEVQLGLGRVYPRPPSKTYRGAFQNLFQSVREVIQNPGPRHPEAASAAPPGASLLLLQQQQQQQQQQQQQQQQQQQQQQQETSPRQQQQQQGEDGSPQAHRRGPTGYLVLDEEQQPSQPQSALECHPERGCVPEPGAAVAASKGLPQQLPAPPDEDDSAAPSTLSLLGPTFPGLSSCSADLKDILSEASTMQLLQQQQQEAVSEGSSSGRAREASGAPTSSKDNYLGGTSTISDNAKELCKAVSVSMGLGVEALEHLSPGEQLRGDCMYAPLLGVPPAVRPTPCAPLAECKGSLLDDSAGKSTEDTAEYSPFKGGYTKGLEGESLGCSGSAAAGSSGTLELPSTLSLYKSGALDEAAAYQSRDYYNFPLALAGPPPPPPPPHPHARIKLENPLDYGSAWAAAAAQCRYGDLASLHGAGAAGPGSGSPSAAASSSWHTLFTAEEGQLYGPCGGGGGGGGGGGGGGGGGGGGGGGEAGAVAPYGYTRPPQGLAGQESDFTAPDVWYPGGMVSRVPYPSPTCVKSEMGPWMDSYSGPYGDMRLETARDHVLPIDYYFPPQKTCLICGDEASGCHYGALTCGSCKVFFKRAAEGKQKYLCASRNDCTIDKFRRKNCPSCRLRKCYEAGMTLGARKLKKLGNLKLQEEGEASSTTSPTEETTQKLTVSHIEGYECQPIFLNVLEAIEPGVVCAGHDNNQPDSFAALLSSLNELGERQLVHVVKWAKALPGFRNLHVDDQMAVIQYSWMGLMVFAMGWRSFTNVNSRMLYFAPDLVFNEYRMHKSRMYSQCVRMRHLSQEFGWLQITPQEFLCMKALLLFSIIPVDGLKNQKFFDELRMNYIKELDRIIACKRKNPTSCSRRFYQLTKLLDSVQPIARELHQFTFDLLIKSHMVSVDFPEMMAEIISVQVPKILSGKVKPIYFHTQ
Description: Inhibition of AR mediated transcriptional activation using reporter assay

Progesterone receptor = target: T2, Progesterone receptor (Rattus norvegicus, UniProt Q63449); test: Inhibition of rat PR
T2 sequence (Q63449 whole entry): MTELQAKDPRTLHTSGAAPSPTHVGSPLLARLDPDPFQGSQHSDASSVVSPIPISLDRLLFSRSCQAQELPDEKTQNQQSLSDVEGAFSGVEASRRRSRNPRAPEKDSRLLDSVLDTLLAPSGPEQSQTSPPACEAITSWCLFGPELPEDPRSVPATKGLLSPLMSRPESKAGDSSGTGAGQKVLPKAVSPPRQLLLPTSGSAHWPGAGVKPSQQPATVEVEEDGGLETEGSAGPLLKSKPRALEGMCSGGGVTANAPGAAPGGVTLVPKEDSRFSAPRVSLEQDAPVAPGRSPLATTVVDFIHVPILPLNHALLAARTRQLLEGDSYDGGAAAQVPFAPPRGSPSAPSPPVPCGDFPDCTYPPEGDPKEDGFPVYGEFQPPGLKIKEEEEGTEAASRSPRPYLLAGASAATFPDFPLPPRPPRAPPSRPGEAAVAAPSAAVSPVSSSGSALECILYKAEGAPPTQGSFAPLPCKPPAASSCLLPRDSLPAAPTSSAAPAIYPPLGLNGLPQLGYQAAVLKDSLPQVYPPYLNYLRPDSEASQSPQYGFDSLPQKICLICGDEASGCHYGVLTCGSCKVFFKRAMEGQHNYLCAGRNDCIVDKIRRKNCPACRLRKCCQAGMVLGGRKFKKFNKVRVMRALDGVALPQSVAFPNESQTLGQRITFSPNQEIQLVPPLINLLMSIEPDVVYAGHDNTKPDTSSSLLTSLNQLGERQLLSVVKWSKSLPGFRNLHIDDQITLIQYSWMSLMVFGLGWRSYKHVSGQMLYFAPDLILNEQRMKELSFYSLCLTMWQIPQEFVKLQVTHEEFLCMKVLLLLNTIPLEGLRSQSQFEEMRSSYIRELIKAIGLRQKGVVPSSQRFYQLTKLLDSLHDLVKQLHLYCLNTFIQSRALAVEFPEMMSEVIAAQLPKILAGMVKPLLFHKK

Glucocorticoid receptor = target: T3, Glucocorticoid receptor (Homo sapiens, UniProt P04150); test: Inhibition of human GR
T3 sequence (P04150 whole entry): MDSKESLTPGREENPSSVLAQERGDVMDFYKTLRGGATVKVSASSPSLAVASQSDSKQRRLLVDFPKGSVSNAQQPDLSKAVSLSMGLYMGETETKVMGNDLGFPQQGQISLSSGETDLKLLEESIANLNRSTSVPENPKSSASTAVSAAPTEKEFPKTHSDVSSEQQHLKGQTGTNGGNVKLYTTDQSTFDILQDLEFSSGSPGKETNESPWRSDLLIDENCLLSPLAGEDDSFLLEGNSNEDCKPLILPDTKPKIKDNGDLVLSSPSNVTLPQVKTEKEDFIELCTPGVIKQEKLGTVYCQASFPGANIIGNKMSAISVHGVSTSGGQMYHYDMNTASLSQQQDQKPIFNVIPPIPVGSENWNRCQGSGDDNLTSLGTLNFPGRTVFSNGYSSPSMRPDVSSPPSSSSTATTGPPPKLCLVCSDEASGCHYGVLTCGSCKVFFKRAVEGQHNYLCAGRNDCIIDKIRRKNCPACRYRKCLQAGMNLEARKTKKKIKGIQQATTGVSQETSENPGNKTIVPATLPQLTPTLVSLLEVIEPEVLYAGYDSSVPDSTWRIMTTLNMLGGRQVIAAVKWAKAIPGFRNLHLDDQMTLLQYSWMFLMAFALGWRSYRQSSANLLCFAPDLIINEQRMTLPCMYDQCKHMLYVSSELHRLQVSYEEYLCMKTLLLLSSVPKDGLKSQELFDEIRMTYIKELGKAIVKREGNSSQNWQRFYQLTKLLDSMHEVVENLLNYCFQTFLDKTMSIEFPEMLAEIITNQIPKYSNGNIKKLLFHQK

[2] = Cmax in rat plasma at 3 mg/kg, po; format: ADME, organism-based; parameters: dose 3 mg/kg, route oral
[3] = AUC (0-72)hrs in rat plasma at 3 mg/kg, po; format: ADME, organism-based; parameters: time < 72 hr, dose 3 mg/kg, route oral
[4] = Half life in rat plasma at 3 mg/kg, po; format: ADME, organism-based; parameters: dose 3 mg/kg, route oral
[5] = Oral clearance in rat at 3 mg/kg, po; format: ADME, organism-based; parameters: dose 3 mg/kg, route oral; conditions: in vivo
[6] = Cmax in rat ventral prostate at 3 mg/kg, po; format: ADME, organism-based, Prostate gland; parameters: dose 3 mg/kg, route oral
[7] = AUC (0-72)hrs in rat ventral prostate at 3 mg/kg, po; format: ADME, organism-based, Prostate gland; parameters: time < 72 hr, dose 3 mg/kg, route oral
[8] = Half life in rat ventral prostate at 3 mg/kg, po; format: ADME, organism-based, Prostate gland; parameters: dose 3 mg/kg, route oral
[9] = Oral clearance in rat ventral prostate at 3 mg/kg, po; format: ADME, organism-based, Prostate gland; parameters: dose 3 mg/kg, route oral
[10] = Cmax in rat hypothalamus at 3 mg/kg, po; format: ADME, organism-based; parameters: dose 3 mg/kg, route oral
[11] = AUC (0-72)hrs in rat hypothalamus at 3 mg/kg, po; format: ADME, organism-based; parameters: time < 72 hr, dose 3 mg/kg, route oral
[12] = Half life in rat hypothalamus at 3 mg/kg, po; format: ADME, organism-based; parameters: dose 3 mg/kg, route oral
[13] = Oral clearance in rat hypothalamus at 3 mg/kg, po; format: ADME, organism-based; parameters: dose 3 mg/kg, route oral
Rattus norvegicus [14] = test: Effect on ventral prostate weight with reference to control in Wistar rat at 100 mg/kg/day; format: ADME, organism-based, Prostate gland; conditions: in vivo
Rattus norvegicus [15] = test: Effect on ventral prostate weight with reference to control in Wistar rat at 10 mg/kg/day, po; conditions: Prostate gland

SMILES	inhibition in vivo at 10 mg/kg/day (Rattus norvegicus [1]) [%]	IC50 (Androgen receptor) [µM]	also measured
CC(=O)c1ccc(NC(=O)N2C[C@H](C)N(c3ccc(C#N)c(C(F)(F)F)c3)C[C@H]2C)cn1 (racemic)	43	0.5	–
COc1cncc(NC(=O)N2C[C@H](C)N(c3ccc(C#N)c(C(F)(F)F)c3)C[C@H]2C)c1 (racemic)	18	0.44	–
CSc1ccc(NC(=O)N2C[C@H](C)N(c3ccc(C#N)c(C(F)(F)F)c3)C[C@H]2C)cn1 (racemic)	36	0.22	–
C[C@@H]1CN(c2ccc(C#N)c(C(F)(F)F)c2)[C@@H](C)CN1C(=O)Nc1ccc(Cl)nc1 (racemic)	52	0.73	–
Cc1ccncc1NC(=O)N1C[C@H](C)N(c2ccc(C#N)c(C(F)(F)F)c2)C[C@H]1C (racemic)	11	0.33	–
Cc1cncc(NC(=O)N2C[C@H](C)N(c3ccc(C#N)c(C(F)(F)F)c3)C[C@H]2C)c1 (racemic)	11	0.25	–
CC(O)(CS(=O)(=O)c1ccc(F)cc1)C(=O)Nc1ccc(C#N)c(C(F)(F)F)c1 (stereo not given) [BICALUTAMIDE]	–	–	Inhibition (Rattus norvegicus [1]): 45%; Ki (Progesterone receptor): 7.2 µM; Ki (Glucocorticoid receptor): > 100 µM; Cmax [2]: 1410 ng/mL; AUC at 72 h [3]: 46900 ng·h/mL; half-life [4]: 22.3 h; CL/F [5]: 0.945 mL/min/kg; Cmax [6]: 1990 ng/mL; AUC at 72 h [7]: 52500 ng·h/mL; half-life [8]: 23.4 h; CL/F [9]: 0.84 mL/min/kg; Cmax [10]: 321 ng/mL; AUC at 72 h [11]: 10600 ng·h/mL; half-life [12]: 27.8 h; CL/F [13]: 3.75 mL/min/kg; Activity (Rattus norvegicus [14]): 55%
COc1ncccc1NC(=O)N1C[C@H](C)N(c2ccc(C#N)c(C(F)(F)F)c2)C[C@H]1C (racemic)	–	0.19	inhibition (Rattus norvegicus [15]): inactive
C[C@@H]1CN(c2ccc(C#N)c(C(F)(F)F)c2)[C@@H](C)CN1C(=O)Nc1ccc(C#N)nc1 (racemic)	53	0.2	–
COc1ccncc1NC(=O)N1C[C@H](C)N(c2ccc(C#N)c(C(F)(F)F)c2)C[C@H]1C (racemic)	–	–	inhibition (Rattus norvegicus [1]): inactive
C[C@@H]1CN(c2ccc(C#N)c(C(F)(F)F)c2)[C@@H](C)CN1C(=O)Nc1ccncn1 (racemic)	–	4.6	–
C[C@@H]1CN(C(=O)Nc2ccc(C(F)(F)F)nc2)[C@@H](C)CN1c1ccc(C#N)c(C(F)(F)F)c1	–	–	inhibition (Rattus norvegicus [15]): inactive
C[C@@H]1CN(c2ccc(C#N)c(C(F)(F)F)c2)[C@@H](C)CN1C(=O)Nc1cncnc1 (racemic)	–	1	–
Cc1ccc(NC(=O)N2C[C@H](C)N(c3ccc(C#N)c(C(F)(F)F)c3)C[C@H]2C)cn1 (racemic)	58	0.13	–
C[C@@H]1CN(c2ccc(C#N)c(C(F)(F)F)c2)[C@@H](C)CN1C(=O)Nc1ncccn1 (racemic)	–	> 10	–
C[C@@H]1CN(c2ccc(C#N)c(C(F)(F)F)c2)[C@@H](C)CN1C(=O)Nc1ccc(O)nc1 (racemic)	–	> 10	–
CC1CN(c2ccc(C#N)c(C(F)(F)F)c2)C(C)CN1C(=O)Nc1ccc(C(F)(F)F)nc1 (racemic)	64	–	–
COC(=O)c1ccc(NC(=O)N2C[C@H](C)N(c3ccc(C#N)c(C(F)(F)F)c3)C[C@H]2C)cn1 (racemic)	–	0.47	inhibition (Rattus norvegicus [1]): inactive
C[C@@H]1CN(c2ccc(C#N)c(C(F)(F)F)c2)[C@@H](C)CN1C(=O)Nc1ccccn1 (racemic)	–	7.8	–
C[C@@H]1CN(c2ccc(C#N)c(C(F)(F)F)c2)[C@@H](C)CN1C(=O)Nc1ccncc1 (racemic)	39	–	–
C[C@@H]1CN(c2ccc(C#N)c(C(F)(F)F)c2)[C@@H](C)CN1C(=O)Nc1ccc(F)cc1F	–	0.2	inhibition (Rattus norvegicus [15]): inactive
C[C@@H]1CN(c2ccc(C#N)c(C(F)(F)F)c2)[C@@H](C)CN1C(=O)Nc1ccc[n+]([O-])c1 (racemic)	–	> 10	–
COc1ccc(NC(=O)N2C[C@H](C)N(c3ccc(C#N)c(C(F)(F)F)c3)C[C@H]2C)cn1 (racemic)	52	0.17	–
C[C@@H]1CN(c2ccc(C#N)c(C(F)(F)F)c2)[C@@H](C)CN1C(=O)Nc1cccnc1 (racemic)	42	0.12	–
C[C@@H]1CN(c2ccc(C#N)c(C(F)(F)F)c2)[C@@H](C)CN1C(=O)Nc1ccc(N)nc1 (racemic)	39	0.37	–
Cc1ncccc1NC(=O)N1C[C@H](C)N(c2ccc(C#N)c(C(F)(F)F)c2)C[C@H]1C (racemic)	–	0.68	–
